Reference: patent publication US5461034A, “Osteogenic growth polypeptides identified from regenerating bone marrow” (Yissum Research Development Company of the Hebrew …, priority 1993, dated 1995)

Test system: ROS 17/2 cells
Test: Anti-PDGF antibody neutralization in ROS 17/2 cells
Assay type: cell-based, rat
Conditions: intermediate doses of HBMCM preparations
Protocol: Anti-PDGF antibody neutralization experiments were carried out with polyclonal antiserum prepared in rabbits against PDGF. PDGF or HBMCM-derived preparations were added to ROS 17/2 cells in the presence or absence of antibody and examined for effects on [^3 H]TdR incorporation.

With PDGF the “effect of polyclonal anti-PDGF antibodies on mitogenic effect” value was “inhibited PDGF-stimulated replication”.
